Test results taken from US20200077655A1, “Use of an Acyclic Picolinamide Compound as a Fungicide for Control of Phytopathogenic Fungi in Orchard, Vineyard and Plantation Crops” (Dow AgroSciences LLC, priority 2017, published 2020).

Legend:
Type in all cases: in vivo
[1] = system: Mycosphaerella fijiensis (MYCOFI); experiment: Field assessment of black sigatoka on banana; conditions: bananas; for Area Under Disease Progression Curve (AUDPC) from severity assessments: 52-59 days after application; for Percent control calculated from severity percentage: 52 days after application
Protocol: Aliquots of a 5% EC formulation of compound I were diluted with water and mixed with Spraytex CT mineral oil (6 L CP/Ha) to achieve active ingredient rates of 25, 50, 100 and 150 g ai/Ha. These treatments were delivered to the foliar affected area of single leaves (application volume of 40 L/Ha) by means of an Aerograph spayer through a plastic molding with an application area of 9×12 centimeters. A single application was delivered to leaf 1 (preventive and very early curative), and leaf 3 (curative effect). Experimental design was based on a randomized complete block, and 4 replications. MYCOFI symptoms resulted from natural inoculation and epidemic development.
Percent disease control was calculated using the ratio of disease severity on treated leaves relative to untreated leaves. Black sigatoka infection was assessed five times during the trial: 31 days after application (31DAA), 38DAA, 45DAA, 52DAA and 59DAA. Area under the disease progress curve (AUDPC) was calculated for each plot using the sets of recorded severity data. Relative AUDPC (% control based on AUDPC) was calculated as percent of the nontreated control.

[2] = system: Botrytis cinerea (BOTRCI); experiment: Strawberry shelf-life simulation, gray mold
Source text: Strawberry shelf-life simulation (3 repetitions): Fungicidal treatments were applied to strawberry plants grown in a shade house to obtain healthy fruits. Once matured, the healthy fruits were harvested and transferred to a laboratory for a shelf-simulation study. In the laboratory, the fruits were bleach decontaminated to remove residual chemical residue. Compound I, applied in a 5% EC formulation and mixed with an adjuvant (Trycol, 50% w/w at 0.2% v/v), was sprayed on the healthy strawberries at rates of 50, 100 and 150 grams of active ingredient per hectare (g ai/ha) and allowed to dry completely. The fruits were then inoculated with gray mold and incubated on a laboratory bench at 20° C. Disease severity was recorded as a percentage of fruit infection assessments. Gray mold infection was assessed twice after the initial inoculation, 4 days after infection (4DAI) and 6DAI. Area under the disease progress curve (AUDPC) was calculated for each repetition using the sets of recorded severity data. Relative AUDPC (% control based on AUDPC) was calculated as percent of the nontreated control.

[3] = system: Erysiphe necator (UNCINE); experiment: Field assessment of grape powdery mildew; conditions: grapes, 5% EC + Trycol
Source text: A fungicidal treatment containing Compound I, applied in a 5% EC formulation and tank mixed with an adjuvant (Trycol, 50% w/w at 0.2% v/v), was sprayed on the plant canopy of grape plants (VITVI, Chardonnay variety) at rates of 50, 100 and 150 grams of active ingredient per hectare (g ai/ha). The trial was based on six foliar applications during the growing season at approximately 10 day intervals with natural infections in open field conditions. The treatment was part of an experimental trial designed as a randomized complete block with four replications and a plot of approximately 3.0×7.0 m. Formulations of compound I were applied at water volume of 1000 L/ha, using a self-propelled multi-plot track sprayer (TRACTAIR, Andreoli Engineering) and pressurized at 400 kPa.
Disease evaluations were recorded as percent of leaves and fruit with disease (incidence) and percent diseased area on leaves and fruit (severity, using 100 random leaves and fruit bunches. Grape powdery mildew was assessed three times, with the initial assessment at 2 days after the fourth application. Area under the disease progress curve (AUDPC) was calculated for each plot using the sets of recorded severity data. Relative AUDPC (% control based on AUDPC) was calculated as percent of the nontreated control. Results are given in Table 8.

## COc1ccnc(C(=O)N[C@@H](C)C(=O)O[C@@H](C)C(c2ccc(F)cc2)c2ccc(F)cc2)c1OC(C)=O [Compound I, (S)-1,1-bis(4-fluorophenyl)propan-2-yl (3-acetoxy-4-methoxypicolinoyl)-L-alaninate]
[1]; Leaf 1 (Preventive), 25 g ai/ha, untreated 665
  Area Under Disease Progression Curve (AUDPC) from severity assessments: 198
[1]; Leaf 1 (Preventive), 25 g ai/ha
  Percent control calculated from severity percentage: B (51-75)
[1]; Leaf 1 (Preventive), 50 g ai/ha, untreated 665
  Area Under Disease Progression Curve (AUDPC) from severity assessments: 211
[1]; Leaf 1 (Preventive), 50 g ai/ha
  Percent control calculated from severity percentage: B (51-75)
[1]; Leaf 1 (Preventive), 100 g ai/ha, untreated 665
  Area Under Disease Progression Curve (AUDPC) from severity assessments: 203
[1]; Leaf 1 (Preventive), 100 g ai/ha
  Percent control calculated from severity percentage: B (51-75)
[1]; Leaf 1 (Preventive), 150 g ai/ha, untreated 665
  Area Under Disease Progression Curve (AUDPC) from severity assessments: 183
[1]; Leaf 1 (Preventive), 150 g ai/ha
  Percent control calculated from severity percentage: B (51-75)
[1]; Leaf 3 (Curative), 25 g ai/ha, untreated 464
  Area Under Disease Progression Curve (AUDPC) from severity assessments: 357
[1]; Leaf 3 (Curative), 25 g ai/ha
  Percent control calculated from severity percentage: C (26-50)
[1]; Leaf 3 (Curative), 50 g ai/ha, untreated 464
  Area Under Disease Progression Curve (AUDPC) from severity assessments: 317
[1]; Leaf 3 (Curative), 50 g ai/ha
  Percent control calculated from severity percentage: C (26-50)
[1]; Leaf 3 (Curative), 100 g ai/ha, untreated 464
  Area Under Disease Progression Curve (AUDPC) from severity assessments: 289
[1]; Leaf 3 (Curative), 100 g ai/ha
  Percent control calculated from severity percentage: C (26-50)
[1]; Leaf 3 (Curative), 150 g ai/ha, untreated 464
  Area Under Disease Progression Curve (AUDPC) from severity assessments: 293
[1]; Leaf 3 (Curative), 150 g ai/ha
  Percent control calculated from severity percentage: C (26-50)
[2]; 50 g ai/ha
  Percent control (AUDPC) from fruit severity assessments: B (51-75)
[2]; 100 g ai/ha
  Percent control (AUDPC) from fruit severity assessments: A (76-100)
[2]; 150 g ai/ha
  Percent control (AUDPC) from fruit severity assessments: A (76-100)
[3]; 50 g ai/ha
  Percent control (AUDPC) from bunch infection assessments: B (51-75)
  Percent control (AUDPC) from leaf infection assessments: A (76-100)
[3]; 100 g ai/ha
  Percent control (AUDPC) from bunch infection assessments: B (51-75)
  Percent control (AUDPC) from leaf infection assessments: A (76-100)
[3]; 150 g ai/ha
  Percent control (AUDPC) from bunch infection assessments: A (76-100)
  Percent control (AUDPC) from leaf infection assessments: A (76-100)
